Molecules are shown by their SMILES.

Data on two compounds can be found in patent US20090131406A1 (BAYER CROPSCIENCE AG, priority 2005, published 2009).

Common to all, as to assay: LIVE/DEAD cytotoxicity assay, inhibition of cell proliferation
Holding throughout (format): cell-based, human
What all share (conditions): 48 hours of incubation, calcein-AM fluorescence, cell growth reduced by 50% compared to control

One experiment relates to SW620 cells. On the procedure:
(§1) The compounds of the general formula (I) according to the invention were tested for a possible cytotoxic or proliferation-inhibiting activity on the human tumour cell lines HeLa, SW620 and A375 (all from ATTC, American Type Culture Collection). To this end, the cells were plated in microtitre plates from Greiner (Manufacturer No. 781092) at a cell density of 1000 cells/microtitre plate well and cultivated in cell culture medium at 37° C. under a 5% carbon dioxide atmosphere. Cell culture media and additives were purchased from Invitrogen and the foetal calf serum from Biochrom. The cell culture media for Hela and A375 cells were used as stated by ATCC (HeLa: MEM, Order No. 10370-047, with 1% sodium bicarbonate, 1% non-essential amino acids, 1% sodium pyruvate, 10% foetal calf serum, 0.1% gentamycin; A375: DMEM, Order No. 41965-039, 2% sodium bicarbonate, 1% L-Glutamax, 10% foetal calf serum, 0.1% gentamycin). The culture medium for the SW620 cells consisted of DMEM, Order No. 41965-039, 1% non-essential amino acids, 10% foetal calf serum, 0.1% gentamycin.
(§2) 24 hours after the cells had been plated in the microtitre plates, various concentrations of at most 100 μM down to a minimum concentration of 5 nM of the test compounds were added to the cells. Stock solutions of the test compounds (10 mM) were prepared in DMSO and stored at −20° C.; for the cytotoxicity tests, the test compounds were diluted in the appropriate cell culture medium.
(§3) After a further 48 hours of incubation, the cells were washed with medium and analysed with the aid of a two-colour fluorescence cytotoxicity/viability test (LIVE/DEAD viability/cytotoxicity ASSAY kit from Molecular Probes, Order No. L-3224), according to the instructions of the manufacturer. To this end, the medium was aspirated and in each case 30 μl of LIVE/DEAD reagent per microtitre plate well were added to the cells, which were then incubated for 30 minutes. The cells were then washed with PBS (phosphate-buffered saline). The number of live cells was analysed by measuring the green fluorescence of the live dye calcein-AM as a component of the LIVE/DEAD reagent using a fluorescence plate reader (Flexstation, from Molecular Devices) at an excitation wavelength of 485 nm and an emission wavelength of 525 nm (cf. Oral, H. B. Endothelium 6, (1998), 143-151).
(§4) Cells only with cell culture medium, without added test compounds, were treated in parallel and analysed as growth controls. The reference compounds used for anti-tumour agents having a cytotoxic or proliferation-inhibiting action were colchicine (from Merck/Calbiochem, Order No. 234115) and Taxol (baccatin III N-benzyl-b-phenylisoserine ester, from Merck/Calbiochem, Order No. 580555) (cf. Schiff, P. B. and Horwitz, S. B., Proceedings of the National Academy of Sciences of the U.S.A. 77, 1561-1565, 1980; Holmes, F. A. et al., Journal of the National Cancer Institute 83, 1797-1805, 1991).
(§5) The cytotoxic effects of the test compounds were expressed as logarithmic GI50 values (growth-inhibiting logarithmic concentration value at which a cell growth reduced by 50% compared to the control without test compounds was measured (cf. Xia et al., Journal of Medicinal Chemistry 44, 3932-3936, 2001; Smith, J. A. et al., Gynecologic Oncology 98, 141-145, 2005)).

A further experiment concerns A375 cells. The protocol:
as §1, §2, §3, §4, §5

The test system of another experiment is HeLa cells. The arrangement: log GI50 values (M), HeLa cells: unit not given here. On the procedure:
as §1
24 hours after the cells had been plated in the microtitre plates, various concentrations of at most 100 μM down to a minimum concentration of 5 nM of the test compounds were added to the cells. […]
as §3, with “To this end, the medium was aspirated and in each case 30 μl of LIVE/DEAD reagent per microtitre plate well were added to the cells, which were then incubated for 30 minutes. The cells were then washed with PBS (phosphate-buffered saline).” left out
Cells only with cell culture medium, without added test compounds, were treated in parallel and analysed as growth controls. […]

The GI50 is the concentration giving 50% growth inhibition. As to `CC(=O)O[C@H]1C(=O)[C@@]2(C)[C@H]([C@H](OC(=O)c3ccccc3)[C@]3(O)C[C@H](OC(=O)[C@H](O)[C@@H](NC(=O)c4ccccc4)c4ccccc4)C(C)=C1C3(C)C)[C@]1(OC(C)=O)CO[C@@H]1C[C@@H]2O` [Taxol], the GI50 is 1e-07 M in the experiment on SW620 cells (Homo sapiens, SW-620, read-out: log GI50 values (M), SW620 cells (converted)); 1.26e-07 M with A375 cells (Homo sapiens, A-375, read-out: log GI50 values (M), A375 cells (converted)); 1e-07 M in the experiment with HeLa cells (Homo sapiens, read-out: log GI50 values (M), HeLa cells (converted)).

`CO[C@@H]1[C@@H](OC)[C@H](O[C@@H]2CC(=O)[C@@H]3CCN(Cc4cc5c(cc43)OCO5)C(=O)[C@H]2O)O[C@H](CO)[C@H]1OC` [Cripowellin II, cripowellin II]: the “log GI50 values (M), SW620 cells” value with SW620 cells was 6.9 -log M. The “log GI50 values (M), A375 cells” value in the experiment on A375 cells is reported as 8.0 M. Moreover, the “log GI50 values (M), HeLa cells” value with HeLa cells is 8.7.
